Patent US6451353B1 (priority 1997, dated 2002)

Key:
Lewis lung carcinoma = experiment: Inhibiting effect on Lewis lung carcinoma; assay type: in vivo, mice; conditions: Table 9; 5-Fu 5 mg/kg/d i.p. × 10
Procedure: Healthy C57BL/6N mice with a body weight of 18-22 g. each were obtained from the breeding center of Sichuan Institute of Antibiotic Industry, Chengdu, Sichuan Province, P. R. China. Both male and female mice were used in the experiment. Lewis lung carcinoma was obtained from the Division of Pharmacology, Sichuan Institute of Antibiotic Industry, Chengdu, Sichuan Province, P. R. China. […] The experiment was carried out in vivo according to “Procedures of in vivo Screening of Antineoplastic Drugs” established in P. R. China in 1978.

Sarcoma 180 [1] = experiment: Inhibiting effect on mouse sarcoma 180; assay type: in vivo; conditions: ICR mice; 5-Fu 5 mg/kg/d i.p. × 12
Procedure: Healthy Kunming and ICR mice with a body weight of 18-22 g. each were obtained from the breeding center of Sichuan Institute of Antibiotic Industry, Chengdu, Sichuan Province, P. R. China. Both male and female mice were used in the experiment. Sarcoma 180 was obtained from the Division of Pharmacology, Sichuan Institute of Antibiotic Industry, Chengdu, Sichuan Province, P. R. China. […] The experiment was carried out in vivo according to “Procedures of in vivo Screening of Antineoplastic Drugs” established in P. R. China in 1978.

Sarcoma 180 [2] = experiment: Combination with 5-fluorouracil and 60Co gamma rays on mouse sarcoma 180; assay type: in vivo; conditions: Kunming mice, Fagopyrum Composition 100 mg/kg p.o. × 10, 5-FU 5 mg/kg i.p. × 10, γ 300 rad × 1
Procedure: 60 Kunming mice were obtained from the breeding center of Chengdu Institute of Biological Products, the Ministry of Health, Chengdu, Sichuan Province, P. R. China.
Sarcoma 180 was obtained from the Division of Pharmacology, Sichuan Institute of Antibiotic Industry, Chengdu, Sichuan Province, P. R. China. The tumor line had been passed on several times in Kunming mice.
The drug was prepared by Nantong Pharmaceuticals, Nantong, Jiangsu Province, P. R. China.
Inoculation of tumor line and evaluation of therapeutic efficacy were performed according to “Procedures of in vivo Screening of Antineoplastic Drugs” established in P. R. China in 1978.
Sixty mice were divided into 6 groups, 10 mice for each group. Group 1 was the control group wherein the mice were treated only by saline. Groups 2 to 6 were treatment groups using different therapies. […] Group 3 was treated with 5-Fluorouracil. Group 4 was treated with ^60Co irradiation. […] Result of each group was then calculated and compared.

cervical carcinoma U14 = experiment: Inhibiting effect on mouse cervical carcinoma U14; assay type: in vivo; conditions: Table 13, ICR mice; 5-Fu 5 mg/kg/d i.p. × 9
Procedure: Healthy Kunming and ICR mice with a body weight of 18-22 g. each were obtained from the breeding center of Sichuan Institute of Antibiotic Industry, Chengdu, Sichuan Province, P. R. China. Both male and female mice were used in the experiment. Uterine carcinoma U14 was obtained from the Division of Pharmacology, Sichuan Institute of Antibiotic Industry, Chengdu, Sichuan Province, P. R. China. […] The experiment was carried out in vivo according to “Procedures of in vivo Screening of Antineoplastic Drugs” established in P. R. China in 1978.

Tumor = experiment: Tumor-inhibiting rates of extracts obtained with different solvents; assay type: in vivo, mice; conditions: 5-FU 10 mg/kg

Compound: O=c1[nH]cc(F)c(=O)[nH]1 [5-FU, 5-Fluorouracil]
- Average Tumor Weight (x ± SD) (Lewis lung carcinoma): 0.74 ± 0.49 g
- Change in Mean Value of Body Weight (Lewis lung carcinoma): +0.4 g
- Tumor Inhibiting Rate (Lewis lung carcinoma): 52.26%
- Average Tumor Weight (x ± SD) (Sarcoma 180 [1]): 0.49 ± 0.25 g
- Change in Mean Value of Body Weight (Sarcoma 180 [1]): +2.01 g
- Tumor Inhibiting Rate (Sarcoma 180 [1]): 51.49%
- Tumor Inhibiting Rate (Sarcoma 180 [2]): 47.8%
- Tumor Weight (Sarcoma 180 [2]; saline control 1.36): 0.71 g
- Average Tumor Weight (x ± SD) (cervical carcinoma U14): 1.27 ± 0.37 g
- Change in Mean Value of Body Weight (cervical carcinoma U14): +3.93 g
- Tumor Inhibiting Rate (cervical carcinoma U14): 35.53%
- Tumor-inhibiting Rate (Tumor): 31.37%
